Measurements taken from US12174198B2, “Methods of characterizing condensate-associated characteristics of compounds and uses thereof” (Dewpoint Therapeutics, Inc., priority 2019, dated 2024).
Counter-ions that a name gives are not always drawn.

What was measured:
[1] = target: T1, FUS-SNAP condensates (Homo sapiens, UniProt P35637); assay: Fluorescence imaging of dye partitioning in FUS-SNAP condensates (I-in, I-out); assay type: physicochemical; conditions: for Ratio of intensity inside:outside FUS-SNAP Condensates Day 1 / Ratio of intensity inside:outside FUS-SNAP Condensates Day 2 / Ratio of intensity inside:outside FUS-SNAP Condensates Average: I-in:I-out; for Ratio of intensity inside:outside FUS-SNAP Condensates Day 1 / Ratio of intensity inside:outside FUS-SNAP Condensates Day 2 / Ratio of intensity inside:outside FUS-SNAP Condensates Average / Intensity Inside with Dye Average / Intensity Inside with Dye 1 / Intensity Inside with Dye 2 / Intensity Inside with Dye 3 / Intensity Outside with Dye Average / Intensity Outside with Dye 1 / Intensity Outside with Dye 2 / Intensity Outside with Dye 3: 10 μM dye; for Ratio of intensity inside:outside FUS-SNAP Condensates Average: average of two days; for Intensity Inside with Dye Average / Intensity Inside with Dye 1 / Intensity Inside with Dye 2 / Intensity Inside with Dye 3 / Intensity Inside Dye-No Dye: inside FUS-SNAP condensate; for Intensity Inside with Dye Average / Intensity Inside with Dye 1 / Intensity Inside with Dye 2 / Intensity Inside with Dye 3 / Intensity Outside with Dye Average / Intensity Outside with Dye 1 / Intensity Outside with Dye 2 / Intensity Outside with Dye 3: 5 μM protein; for Intensity Inside with Dye Average / Intensity Outside with Dye Average: average of three images; for Intensity Inside with Dye Average / Intensity Inside with Dye 1 / Intensity Inside with Dye 2 / Intensity Inside with Dye 3 / Intensity Inside Dye-No Dye / Intensity Outside with Dye Average / Intensity Outside with Dye 1 / Intensity Outside with Dye 2 / Intensity Outside with Dye 3 / Intensity Outside (Dye-No Dye): one day of experiments; for Intensity Inside with Dye 1 / Intensity Outside with Dye 1: image 1; for Intensity Inside with Dye 2 / Intensity Outside with Dye 2: image 2; for Intensity Inside with Dye 3 / Intensity Outside with Dye 3: image 3; for Intensity Inside Dye-No Dye / Intensity Outside (Dye-No Dye): background corrected; for Intensity Outside with Dye Average / Intensity Outside with Dye 1 / Intensity Outside with Dye 2 / Intensity Outside with Dye 3 / Intensity Outside (Dye-No Dye): outside FUS-SNAP condensate
T1 sequence (P35637 1-526): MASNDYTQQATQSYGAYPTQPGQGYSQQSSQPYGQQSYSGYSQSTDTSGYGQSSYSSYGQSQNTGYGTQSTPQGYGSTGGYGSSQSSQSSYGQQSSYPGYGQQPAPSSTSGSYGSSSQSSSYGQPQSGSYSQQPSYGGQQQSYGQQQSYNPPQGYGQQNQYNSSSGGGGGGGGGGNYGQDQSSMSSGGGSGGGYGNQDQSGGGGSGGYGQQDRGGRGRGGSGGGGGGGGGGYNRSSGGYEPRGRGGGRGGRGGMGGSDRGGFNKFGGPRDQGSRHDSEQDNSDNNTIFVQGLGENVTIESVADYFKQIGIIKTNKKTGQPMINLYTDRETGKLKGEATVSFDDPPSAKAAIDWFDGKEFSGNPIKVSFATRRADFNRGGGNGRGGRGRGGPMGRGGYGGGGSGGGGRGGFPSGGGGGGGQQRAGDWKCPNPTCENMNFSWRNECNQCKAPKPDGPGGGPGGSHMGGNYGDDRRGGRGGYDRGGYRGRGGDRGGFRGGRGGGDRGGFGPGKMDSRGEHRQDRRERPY
Summary of the method: (§1)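 Partitioning read by spinning-disk confocal imaging (60× oil, dye-specific exposure 1-1000 ms) of condensates formed from 5 μM protein (FUS-SNAP or untagged PGL-3) plus 10 μM dye, 75 mM KCl, 1% DMSO, pH 7.25. Background-subtracted intensities inside and beside one condensate per image, three images averaged.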

[2] = target: T2, PGL-3 condensates (Caenorhabditis elegans, UniProt G5EBV6); assay: Fluorescence imaging of dye partitioning in PGL-3 condensates (I-in, I-out); assay type: physicochemical; conditions: for Ratio of intensity inside:outside PGL-3 Condensates Day 1 / Ratio of intensity inside:outside PGL-3 Condensates Day 2 / Ratio of intensity inside:outside PGL-3 Condensates Average: I-in:I-out; for Ratio of intensity inside:outside PGL-3 Condensates Day 1 / Ratio of intensity inside:outside PGL-3 Condensates Day 2 / Ratio of intensity inside:outside PGL-3 Condensates Average / Intensity Inside with Dye Average / Intensity Inside with Dye 1 / Intensity Inside with Dye 2 / Intensity Inside with Dye 3 / Intensity Outside with Dye Average / Intensity Outside with Dye 1 / Intensity Outside with Dye 2 / Intensity Outside with Dye 3: 10 μM dye; for Ratio of intensity inside:outside PGL-3 Condensates Average: average of two days; for Intensity Inside with Dye Average / Intensity Inside with Dye 1 / Intensity Inside with Dye 2 / Intensity Inside with Dye 3 / Intensity Inside Dye-No Dye: inside PGL-3 condensate; for Intensity Inside with Dye Average / Intensity Inside with Dye 1 / Intensity Inside with Dye 2 / Intensity Inside with Dye 3 / Intensity Outside with Dye Average / Intensity Outside with Dye 1 / Intensity Outside with Dye 2 / Intensity Outside with Dye 3: 5 μM protein; for Intensity Inside with Dye Average / Intensity Outside with Dye Average: average of three images; for Intensity Inside with Dye Average / Intensity Inside with Dye 1 / Intensity Inside with Dye 2 / Intensity Inside with Dye 3 / Intensity Inside Dye-No Dye / Intensity Outside with Dye Average / Intensity Outside with Dye 1 / Intensity Outside with Dye 2 / Intensity Outside with Dye 3 / Intensity Outside (Dye-No Dye): one day of experiments; for Intensity Inside with Dye 1 / Intensity Outside with Dye 1: image 1; for Intensity Inside with Dye 2 / Intensity Outside with Dye 2: image 2; for Intensity Inside with Dye 3 / Intensity Outside with Dye 3: image 3; for Intensity Inside Dye-No Dye / Intensity Outside (Dye-No Dye): background corrected; for Intensity Outside with Dye Average / Intensity Outside with Dye 1 / Intensity Outside with Dye 2 / Intensity Outside with Dye 3 / Intensity Outside (Dye-No Dye): outside PGL-3 condensate
T2 sequence (G5EBV6 1-693): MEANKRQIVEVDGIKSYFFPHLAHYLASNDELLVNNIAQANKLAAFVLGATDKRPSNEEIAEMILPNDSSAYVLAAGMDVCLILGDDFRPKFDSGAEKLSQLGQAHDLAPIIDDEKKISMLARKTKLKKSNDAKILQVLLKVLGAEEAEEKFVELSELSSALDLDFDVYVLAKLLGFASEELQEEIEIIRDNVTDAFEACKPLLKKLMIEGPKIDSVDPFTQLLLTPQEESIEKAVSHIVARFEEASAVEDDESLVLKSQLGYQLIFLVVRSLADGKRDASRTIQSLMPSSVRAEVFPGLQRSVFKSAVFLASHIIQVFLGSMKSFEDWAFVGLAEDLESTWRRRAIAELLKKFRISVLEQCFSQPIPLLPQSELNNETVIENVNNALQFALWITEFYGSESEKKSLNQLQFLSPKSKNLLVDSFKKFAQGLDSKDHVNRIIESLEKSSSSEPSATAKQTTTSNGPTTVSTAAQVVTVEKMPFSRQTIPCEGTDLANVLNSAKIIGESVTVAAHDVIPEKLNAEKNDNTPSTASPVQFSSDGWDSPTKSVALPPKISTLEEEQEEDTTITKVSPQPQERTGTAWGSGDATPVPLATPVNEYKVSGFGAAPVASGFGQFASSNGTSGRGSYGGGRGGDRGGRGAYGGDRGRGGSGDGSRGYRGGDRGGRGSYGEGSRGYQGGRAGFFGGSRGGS
Summary of the method: as §1

SMILES | Ratio of intensity inside:outside FUS-SNAP Condensates Day 1 [1] | Ratio of intensity inside:outside FUS-SNAP Condensates Day 2 [1] | Ratio of intensity inside:outside FUS-SNAP Condensates Average [1] | Intensity Inside with Dye Average [1] | Intensity Inside with Dye 1 [1] | Intensity Inside with Dye 2 [1] | Intensity Inside with Dye 3 [1] | Intensity Inside Dye-No Dye [1] | Intensity Outside with Dye Average [1] | Intensity Outside with Dye 1 [1] | Intensity Outside with Dye 2 [1] | Intensity Outside with Dye 3 [1] | Intensity Outside (Dye-No Dye) [1] | Ratio of intensity inside:outside PGL-3 Condensates Day 1 [2] | Ratio of intensity inside:outside PGL-3 Condensates Day 2 [2] | Ratio of intensity inside:outside PGL-3 Condensates Average [2] | Intensity Inside with Dye Average [2] | Intensity Inside with Dye 1 [2] | Intensity Inside with Dye 2 [2] | Intensity Inside with Dye 3 [2] | also measured
CCN(CC)c1ccc2c(-c3ccccc3C(=O)O)c3ccc(=[N+](CC)CC)cc-3oc2c1 [Dye 16, Rhodamine B] | 4.4 | 3.8 | 4.1 | 2041.4 | 2154.5 | 2074.7 | 1895.0 | 1941.7 | 540.2 | 546.8 | 508.3 | 565.6 | 440.3 | 1.4 | 1.3 | 1.4 | 5776.5 | 5570.5 | 6179.8 | 5579.3 | Intensity Inside Dye-No Dye [2]: 5675.0; Intensity Outside with Dye Average [2]: 4088.7; Intensity Outside with Dye 1 [2]: 3907.8; Intensity Outside with Dye 2 [2]: 4226.6; Intensity Outside with Dye 3 [2]: 4131.5; Intensity Outside (Dye-No Dye) [2]: 3987.2
O=C([O-])c1ccccc1C1=c2cc3c4c(c2Oc2c1cc1c5c2CCCN5CCC1)CCC[N+]=4CCC3 [Dye 17, Rhodamine 101 inner salt] | 6.1 | 5.9 | 6.0 | 4956.7 | 4695.6 | 5663.6 | 4511.0 | 4857.1 | 902.4 | 808.3 | 1011.5 | 887.5 | 802.5 | 1.8 | 1.9 | 1.9 | 13067.5 | 12579.6 | 14061.0 | 12561.8 | Intensity Inside Dye-No Dye [2]: 12966.0; Intensity Outside with Dye Average [2]: 7117.9; Intensity Outside with Dye 1 [2]: 7184.0; Intensity Outside with Dye 2 [2]: 7157.1; Intensity Outside with Dye 3 [2]: 7012.6; Intensity Outside (Dye-No Dye) [2]: 7016.4
N#CC1=c2cc3c4c(c2Oc2c1cc1c5c2CCCN5CCC1)CCC[N+]=4CCC3 [Dye 18, Rhodamine 800] | 7.6 | 11.0 | 9.3 | 15051.4 | 15394.5 | 13908.5 | 15851.1 | 14919.5 | 2092.2 | 2064.2 | 1988.2 | 2224.3 | 1959.9 | 3.4 | 2.4 | 2.9 | 730.8 | 714.9 | 700.1 | 777.4 | Intensity Inside Dye-No Dye [2]: 604.6; Intensity Outside with Dye Average [2]: 309.4; Intensity Outside with Dye 1 [2]: 301.3; Intensity Outside with Dye 2 [2]: 294.6; Intensity Outside with Dye 3 [2]: 332.2; Intensity Outside (Dye-No Dye) [2]: 178.7
COC(=O)c1ccccc1-c1c2ccc(=N)cc-2oc2cc(N)ccc12.Cl [Dye 14, Rhodamine 123] | 1.3 | 1.4 | 1.3 | 2970.4 | 3123.1 | 2956.9 | 2831.2 | 2835.2 | 2277.6 | 2174.8 | 2322.7 | 2335.1 | 2173.5 | 1.1 | 1.1 | 1.1 | 2877.7 | 2874.7 | 2858.2 | 2900.3 | Intensity Inside Dye-No Dye [2]: 2731.2; Intensity Outside with Dye Average [2]: 2596.6; Intensity Outside with Dye 1 [2]: 2628.3; Intensity Outside with Dye 2 [2]: 2616.4; Intensity Outside with Dye 3 [2]: 2545.0; Intensity Outside (Dye-No Dye) [2]: 2491.2
O=C1OC2(c3ccc(O)cc3Oc3cc(O)ccc32)c2ccccc21 [Dye 6, Fluorescein] | 1.7 | 1.4 | 1.5 | 6277.1 | 6328.8 | 6300.8 | 6201.7 | 6141.9 | 3784.7 | 3771.1 | 3840.2 | 3742.7 | 3680.6 | 1.0 | 1.0 | 1.0 | 4402.0 | 4585.4 | 4501.5 | 4119.2 | Intensity Inside Dye-No Dye [2]: 4255.5; Intensity Outside with Dye Average [2]: 4166.2; Intensity Outside with Dye 1 [2]: 4395.6; Intensity Outside with Dye 2 [2]: 4190.8; Intensity Outside with Dye 3 [2]: 3912.1; Intensity Outside (Dye-No Dye) [2]: 4060.8
